Assay results taken from patent US20250368648A1, “MULTI-CYCLIC IRAK AND FLT3 INHIBITING COMPOUNDS AND USES THEREOF” (CHILDREN'S HOSPITAL MEDICAL CENTER, priority 2022, published 2025).

Assays:
Format in all cases: biochemical
Settings in all cases: HotSpot functional assay, isolated kinase enzyme, 33P-ATP
IRAK4 = target: T1, IRAK4 (Homo sapiens, UniProt Q9NWZ3); assay: RBC HotSpot Kinase Assay, IRAK4; set-up: purchased RBC (Reaction Biology) HotSpot assay
T1 sequence (Q9NWZ3 1-460): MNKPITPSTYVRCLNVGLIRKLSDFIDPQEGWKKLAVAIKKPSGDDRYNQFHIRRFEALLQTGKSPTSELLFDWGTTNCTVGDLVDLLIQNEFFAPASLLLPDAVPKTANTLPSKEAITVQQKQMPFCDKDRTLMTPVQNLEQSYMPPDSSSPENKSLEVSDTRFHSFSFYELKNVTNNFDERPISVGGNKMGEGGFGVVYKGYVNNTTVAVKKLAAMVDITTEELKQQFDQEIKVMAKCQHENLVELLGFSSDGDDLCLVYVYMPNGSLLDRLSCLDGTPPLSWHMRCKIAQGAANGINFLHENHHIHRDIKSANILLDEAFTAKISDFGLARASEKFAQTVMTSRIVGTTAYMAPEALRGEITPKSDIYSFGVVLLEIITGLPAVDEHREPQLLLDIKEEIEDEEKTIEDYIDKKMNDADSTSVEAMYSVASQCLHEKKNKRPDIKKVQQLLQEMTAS
Source text: (§1) This assay uses the isolated kinase enzyme. This assay is very useful for determining competition of the inhibitor for ATP and/or substrates and for measuring the kinetics of enzyme inhibition. […] Unlike kinase binding assays that measure competition for ATP, the HotSpot Kinase Assay is a functional assay that measures catalytic activity; as such it measures relative functional potency regardless of the mechanism of enzyme inhibition. This assay uses the form of the various enzymes that are easiest to express, which may not necessarily be the form of the enzyme that exist in the cell. (Sometimes the carboxy terminus has been truncated to aid in expression, or, if it is a receptor kinase, the enzyme itself is isolated from the other parts of the receptor that are involved in regulating kinase activity.)
(§2) The reagent used was as follows: Base Reaction buffer; 20 mM Hepes (pH 7.5), 10 mM MgCl2, 1 mM EGTA, 0.01% Brij35, 0.02 mg/mi BSA, 0.1 mM Na3VO4, 2 mM DTT, 1% DMSO. Required cofactors were added individually to each kinase reaction.
(§3) The reaction procedure was as follows: • 1) Substrates were prepared in freshly prepared Reaction Buffer. • 2) Any required cofactors were delivered to the substrate solution above. • 3) Kinase was delivered into the substrate solution and gently mixed. • 4) Compounds were delivered in 100% DMSO into the kinase reaction mixture by Acoustic technology (Echo550, nanoliter range), followed by incubation for 20 min at room temp. • 5) ^33P-ATP was delivered into the reaction mixture to initiate the reaction. • 6) The mixture was incubated for 2 hours at room temperature. • 7) Kinase activity was detected by P81 filter-binding method.

FLT3 = target: T2, FLT3 (Homo sapiens, UniProt P36888); assay: RBC HotSpot Kinase Assay, FLT3; set-up: purchased RBC (Reaction Biology) HotSpot assay
T2 sequence (P36888 27-993): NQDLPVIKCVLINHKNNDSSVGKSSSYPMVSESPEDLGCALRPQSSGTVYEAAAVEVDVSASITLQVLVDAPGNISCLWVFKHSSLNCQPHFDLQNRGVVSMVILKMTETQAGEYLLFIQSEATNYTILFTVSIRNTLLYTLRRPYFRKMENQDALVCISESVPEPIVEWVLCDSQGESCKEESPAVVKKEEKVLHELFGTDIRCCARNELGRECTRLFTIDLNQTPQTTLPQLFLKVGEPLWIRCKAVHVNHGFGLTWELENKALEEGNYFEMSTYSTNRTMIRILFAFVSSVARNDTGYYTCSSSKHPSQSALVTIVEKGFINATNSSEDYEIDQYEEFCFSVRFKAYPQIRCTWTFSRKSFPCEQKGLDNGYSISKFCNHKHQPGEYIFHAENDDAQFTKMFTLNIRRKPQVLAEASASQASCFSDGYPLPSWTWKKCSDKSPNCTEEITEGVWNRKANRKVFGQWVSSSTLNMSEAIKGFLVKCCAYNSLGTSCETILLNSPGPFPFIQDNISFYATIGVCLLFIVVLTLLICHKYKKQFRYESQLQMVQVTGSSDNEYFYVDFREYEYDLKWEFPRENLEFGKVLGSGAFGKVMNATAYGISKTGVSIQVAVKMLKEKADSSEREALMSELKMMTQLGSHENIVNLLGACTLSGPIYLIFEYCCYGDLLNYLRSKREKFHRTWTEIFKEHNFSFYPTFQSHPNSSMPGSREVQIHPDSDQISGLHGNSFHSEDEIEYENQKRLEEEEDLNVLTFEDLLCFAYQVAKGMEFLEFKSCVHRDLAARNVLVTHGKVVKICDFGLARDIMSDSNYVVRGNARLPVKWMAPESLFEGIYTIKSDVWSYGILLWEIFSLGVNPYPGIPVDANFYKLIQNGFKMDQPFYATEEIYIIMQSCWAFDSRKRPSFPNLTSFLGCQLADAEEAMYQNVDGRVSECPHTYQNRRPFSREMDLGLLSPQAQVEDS
Source text: as §1, §2, §3

IRAK1 = target: T3, IRAK1 (Homo sapiens, UniProt P51617); assay: RBC HotSpot Kinase Assay, IRAK1
T3 construct: purchased RBC (Reaction Biology) HotSpot assay
T3 sequence (P51617 whole entry): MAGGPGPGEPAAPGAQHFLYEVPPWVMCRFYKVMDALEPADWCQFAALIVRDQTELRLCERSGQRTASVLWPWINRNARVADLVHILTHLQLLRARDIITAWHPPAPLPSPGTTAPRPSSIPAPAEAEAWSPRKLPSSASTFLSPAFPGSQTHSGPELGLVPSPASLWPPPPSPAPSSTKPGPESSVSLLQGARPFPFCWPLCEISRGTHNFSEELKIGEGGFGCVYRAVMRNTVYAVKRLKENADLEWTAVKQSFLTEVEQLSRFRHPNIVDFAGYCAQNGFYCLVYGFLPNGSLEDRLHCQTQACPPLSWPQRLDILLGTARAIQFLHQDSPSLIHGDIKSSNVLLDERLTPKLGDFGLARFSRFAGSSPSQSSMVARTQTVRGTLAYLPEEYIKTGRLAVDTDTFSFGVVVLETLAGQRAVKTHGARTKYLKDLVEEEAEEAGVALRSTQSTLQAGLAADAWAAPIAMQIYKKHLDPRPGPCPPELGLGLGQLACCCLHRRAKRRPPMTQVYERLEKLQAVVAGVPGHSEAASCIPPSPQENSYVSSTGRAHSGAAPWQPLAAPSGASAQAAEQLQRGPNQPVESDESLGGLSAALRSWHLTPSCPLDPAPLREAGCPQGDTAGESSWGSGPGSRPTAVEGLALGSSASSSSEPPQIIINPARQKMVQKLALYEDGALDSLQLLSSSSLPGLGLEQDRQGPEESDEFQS
Source text: as §1, §2, §3

SMILES	IC50 (IRAK4)	IC50 (FLT3)	IC50 (IRAK1)
COc1cc2ncc(-c3cc(C)cc(N[C@H]4CNCC[C@@H]4F)n3)n2nc1C1CC1 [Compound 52a, 6-(6-cyclopropyl-7-methoxyimidazo[1,2-b]pyridazin-3-yl)-N-((3S,4S)-4-fluoropiperidin-3-yl)-4-methylpyridin-2-amine]	1740 nM	1 nM	> 10000 nM
COc1ccc(-c2cnc3cc(OC)c(C4CC4)nn23)nc1N[C@@H]1CCCNC1 [Compound 34a, (R)-6-(6-cyclopropyl-7-methoxyimidazo[1,2-b]pyridazin-3-yl)-3-methoxy-N-(piperidin-3-yl)pyridin-2-amine]	202 nM	< 0.5 nM	> 10000 nM
COc1cc2ncc(-c3nc(N[C@H]4CNC[C@@H]4F)c(F)cc3F)n2nc1C1CC(C)(C)C1 [Compound 8a, 6-(6-(3,3-dimethylcyclobutyl)-7-methoxyimidazo[1,2-b]pyridazin-3-yl)-3,5-difluoro-N-((3S,4S)-4-fluoropyrrolidin-3-yl)pyridin-2-amine]	9 nM	0.6 nM	190 nM
COc1cc2ncc(-c3cc(C)cc(N[C@H]4CNC[C@@H]4F)n3)n2nc1C1CC1 [Compound 50a, 6-(6-cyclopropyl-7-methoxyimidazo[1,2-b]pyridazin-3-yl)-N-((3S,4S)-4-fluoropyrrolidin-3-yl)-4-methylpyridin-2-amine]	5240 nM	2 nM	8270 nM
COc1cc2ncc(-c3nc(N[C@H]4CNC[C@@H]4F)c(F)cc3F)n2nc1N1CCCS1(=O)=O [Compound 69a, 2-(3-(3,5-difluoro-6-(((3S,4S)-4-fluoropyrrolidin-3-yl)amino)pyridin-2-yl)-7-methoxyimidazo[1,2-b]pyridazin-6-yl)isothiazolidine 1,1-dioxide]	4 nM	< 0.5 nM	125 nM
COc1cc2ncc(-c3cc(Oc4ccccc4)cc(N[C@H]4CNCC[C@@H]4F)n3)n2nc1C1CC1 [Compound 61a, 6-(6-cyclopropyl-7-methoxyimidazo[1,2-b]pyridazin-3-yl)-N-((3S,4S)-4-fluoropiperidin-3-yl)-4-phenoxypyridin-2-amine]	> 10000 nM	94 nM	> 10000 nM
COc1cc2ncc(-c3nc(N[C@@H]4CCCNC4)c(C)cc3C)n2nc1C1CC1 [Compound 62a]	> 10000 nM	1420 nM	> 10000 nM
COc1cc2ncc(-c3nc(N[C@H]4CNC[C@@H]4F)c(F)cc3F)n2nc1C1CCCC1 [Compound 16a, 6-(6-cyclopentyl-7-methoxyimidazo[1,2-b]pyridazin-3-yl)-3,5-difluoro-N-((3S,4S)-4-fluoropyrrolidin-3-yl)pyridin-2-amine]	2 nM	< 0.5 nM	7 nM
COc1cc2ncc(-c3nc(N[C@@H]4CCCNC4)c(F)cc3F)n2nc1C1CCCC1 [Compound 17a, (R)-6-(6-cyclopentyl-7-methoxyimidazo[1,2-b]pyridazin-3-yl)-3,5-difluoro-N-(piperidin-3-yl)pyridin-2-amine]	2 nM	< 0.5 nM	7 nM
COc1cc2ncc(-c3nc(N[C@H]4CNCC[C@@H]4F)c(F)cc3F)n2nc1C1CCCCC1 [Compound 21a, 6-(6-cyclohexyl-7-methoxyimidazo[1,2-b]pyridazin-3-yl)-3,5-difluoro-N-((3S,4S)-4-fluoropiperidin-3-yl)pyridin-2-amine]	21 nM	< 0.5 nM	5 nM
COc1cc2ncc(-c3nc(N[C@@H]4CCCNC4)c(F)cc3F)n2nc1N1CCCS1(=O)=O [Compound 68a, (R)-2-(3-(3,5-difluoro-6-(piperidin-3-ylamino)pyridin-2-yl)-7-methoxyimidazo[1,2-b]pyridazin-6-yl)isothiazolidine 1,1-dioxide]	7 nM	< 0.5 nM	19 nM
COc1cc2ncc(-c3nc(N[C@@H]4CCCNC4)c(F)cc3F)n2nc1C1COC1 [Compound 72a, (R)-3,5-difluoro-6-(7-methoxy-6-(oxetan-3-yl)imidazo[1,2-b]pyridazin-3-yl)-N-(piperidin-3-yl)pyridin-2-amine]	28 nM	< 0.5 nM	498 nM
COc1cc2ncc(-c3cc(C4CC4)cc(N[C@H]4CNC[C@@H]4F)n3)n2nc1C1CC1 [Compound 57a, 4-cyclopropyl-6-(6-cyclopropyl-7-methoxyimidazo[1,2-b]pyridazin-3-yl)-N-((3S,4S)-4-fluoropyrrolidin-3-yl)pyridin-2-amine]	> 10000 nM	19 nM	> 10000 nM
COc1cc2ncc(-c3nc(N[C@H]4CNCC[C@@H]4F)ccc3C#N)n2nc1C1CC1 [Compound 31a, 2-(6-cyclopropyl-7-methoxyimidazo[1,2-b]pyridazin-3-yl)-6-(((3S,4S)-4-fluoropiperidin-3-yl)amino)nicotinonitrile]	10 nM	43 nM	1110 nM
COc1cc2ncc(-c3nc(N[C@H]4CNC[C@@H]4F)c(F)cc3F)n2nc1C1CCCCC1 [Compound 19a, 6-(6-cyclohexyl-7-methoxyimidazo[1,2-b]pyridazin-3-yl)-3,5-difluoro-N-((3S,4S)-4-fluoropyrrolidin-3-yl)pyridin-2-amine]	3 nM	< 0.5 nM	17 nM
COc1cc2ncc(-c3cc(Oc4ccccc4)cc(N[C@H]4CNC[C@@H]4F)n3)n2nc1C1CC1 [Compound 60a, 6-(6-cyclopropyl-7-methoxyimidazo[1,2-b]pyridazin-3-yl)-N-((3S,4S)-4-fluoropyrrolidin-3-yl)-4-phenoxypyridin-2-amine]	> 10000 nM	277 nM	> 10000 nM
COc1ccc(N[C@@H]2CCCNC2)nc1-c1cnc2cc(OC)c(C3CC3)nn12 [Compound 32a, (R)-6-(6-cyclopropyl-7-methoxyimidazo[1,2-b]pyridazin-3-yl)-5-methoxy-N-(piperidin-3-yl)pyridin-2-amine]	853 nM	80 nM	> 10000 nM
COc1cc2ncc(-c3cc(-c4ccccc4)cc(N[C@H]4CNCC[C@@H]4F)n3)n2nc1C1CC1 [Compound 53a, 6-(6-cyclopropyl-7-methoxyimidazo[1,2-b]pyridazin-3-yl)-N-((3S,4S)-4-fluoropiperidin-3-yl)-4-phenylpyridin-2-amine]	3190 nM	299 nM	4590 nM
COc1cc2ncc(-c3nc(N[C@H]4CNCC[C@@H]4F)c(F)cc3F)n2nc1N1CCCS1(=O)=O [Compound 70a, 2-(3-(3,5-difluoro-6-(((3S,4S)-4-fluoropiperidin-3-yl)amino)pyridin-2-yl)-7-methoxyimidazo[1,2-b]pyridazin-6-yl)isothiazolidine 1,1-dioxide]	10 nM	< 0.5 nM	60 nM
